Our source for the inhibition and melting point values is US20100022526A1, “PYRIDAZINE DERIVATIVES, PROCESSES FOR THEIR PREPARATION AND THEIR USE AS FUNGICIDES” (SYNGENTA CROP PROTECTION, INC., priority 2007, published 2010).

In one data set the test system is Alternaria solani. Kind of data set: Alternaria solani/tomato/Preventive (Action against Alternaria on Tomato). The note with it: preventive spray, tomato plants cv. Roter Gnom, inoculated two days after application, assessed after 4 days, untreated controls infected over 80%, read-out: inhibit fungal infestation. Type of data set: in vivo. How it is done: Alternaria solani/tomato/Preventive (Action against Alternaria on Tomato) 4 weeks old tomato plants cv. Roter Gnom are treated with the formulated test compound in a spray chamber. Two days after application tomato plants are inoculated by spraying a spore suspension on the test plants. After an incubation period of 4 days at 22° C./18° C. and 95% r. h. in a greenhouse the disease incidence is assessed.

The subject of a further data set is Botrytis cinerea. Kind of data set: Botrytis cinerea/tomato/preventive (Action against Botrytis on Tomato). The class given is in vivo. The settings on record: preventive spray, tomato plants cv. Roter Gnom, inoculated two days after application, assessed after 3 days, untreated controls infected over 80%, read-out: inhibit fungal infestation. How it is done: Botrytis cinerea/tomato/preventive (Action against Botrytis on Tomato) 4 weeks old tomato plants cv. Roter Gnom are treated with the formulated test compound in a spray chamber. Two days after application tomato plants are inoculated by spraying a spore suspension on the test plants. After an incubation period of 3 days at 20° C. and 95% r. h. in a greenhouse the disease incidence is assessed.

The test system of another data set is Puccinia recondita. The data set is described as follows: Puccinia recondita/wheat/preventive (Action against Brown Rust on Wheat). The class given is in vivo. The note with it: preventive spray, wheat plants cv. Arina, inoculated one day after application, assessed 11 days after inoculation, untreated controls infected over 80%, read-out: inhibits fungal infestation. The protocol:
Puccinia recondita/wheat/preventive (Action against Brown Rust on Wheat) 1 week old wheat plants cv. Arina are treated with the formulated test compound in a spray chamber. One day after application wheat plants are inoculated by spraying a spore suspension (1×105 uredospores/ml) on the test plants. After an incubation period of 1 day at 20° C. and 95% r. h. plants are kept for 10 days 20° C./18° C. (day/night) and 60% r.h. in a greenhouse. The disease incidence is assessed 11 days after inoculation.

Data set [1] concerns Magnaporthe grisea (Pyricularia oryzae). The data set is described as follows: whole plant or invertebrate. The class given is in vivo. The note with it: read-out: inhibit fungal infestation.
Data set [2] relates to Pyrenophora teres (Helminthosporium teres). Kind of data set: Pyrenophora teres (Helminthosporium teres)/barley/preventive (Action against Net Blotch on Barley). The class given is in vivo. The settings on record: preventive spray, barley plants cv. Regina, inoculated two days after application, assessed after 4 days, untreated controls infected over 80%, read-out: inhibit fungal infestation. How it is done: Pyrenophora teres (Helminthosporium teres)/barley/preventive (Action against Net Blotch on Barley) 1-week-old barley plants cv. Regina are treated with the formulated test compound in a spray chamber. Two days after application barley plants are inoculated by spraying a spore suspension (2.6×10^4 conidia/ml) on the test plants. After an incubation period of 4 days at 20° C. and 95% r. h. the disease incidence is assessed.

The test system of the next data set is Septoria tritici. Kind of data set: Sentoria tritici/wheat/Preventive (Action against Septoria Leaf Spot on Wheat). Type of data set: in vivo. The note with it: Zymoseptoria tritici, preventive spray, wheat plants cv. Riband, inoculated one day after application, assessed 16-18 days after inoculation, untreated controls infected over 80%, read-out: inhibits fungal infestation. The protocol:
Sentoria tritici/wheat/Preventive (Action against Septoria Leaf Spot on Wheat) 2 weeks old wheat plants cv. Riband are treated with the formulated test compound in a spray chamber. One day after application wheat plants are inoculated by spraying a spore suspension (10^6 conidia/ml) on the test plants. After an incubation period of 1 day at 22° C./21° C. and 95% r. h. plants are kept at 22° C./21° C. and 70% r.h. in a greenhouse. The disease incidence is assessed 16-18 days after inoculation.

The subject of another data set is Uncinula necator. Kind of data set: Uncinula necator/grape/preventive (Action against Powdery Mildew on Grape). Type of data set: in vivo. The note with it: Erysiphe necator, preventive spray, grape seedlings cv. Gutedel, inoculated one day after application, assessed after 7 days, untreated controls infected over 80%, read-out: inhibit fungal infestation. How it is done: Uncinula necator/grape/preventive (Action against Powdery Mildew on Grape) 5 weeks old grape seedlings cv. Gutedel are treated with the formulated test compound in a spray chamber. One day after application grape plants are inoculated by shaking plants infected with grape powdery mildew above the test plants. After an incubation period of 7 days at 24° C./22° C. and 70% r. h. under a light regime of 14/10 h (light/dark) the disease incidence is assessed.

Where only a bound is given, the exact number is not on record here.

In general, melting point refers to the temperature of the solid-liquid transition. Molecule `Fc1ccc(-c2c(Cl)nnc(Cl)c2-c2c(F)cc(F)cc2F)cc1` [I.j. 198, 3,6-dichloro-4-(4-fluoro-phenyl)-5-(2,4,6-trifluoro-phenyl)-pyridazine] gave a melting point of 143 to 145 °C. The inhibition at 200 ppm in the data set on Alternaria solani was at least 80%. Also, in the data set on Botrytis cinerea, the inhibition at 200 ppm was at least 80%. Moreover, in the data set with Puccinia recondita, the inhibition at 200 ppm is at least 80%. Moreover, the inhibition at 200 ppm in data set [1] is at least 80%. Further, in data set [2], the inhibition at 200 ppm is at least 80%. In the data set on Septoria tritici, the inhibition at 200 ppm was at least 80%. Moreover, in the data set on Uncinula necator, the inhibition at 200 ppm is at least 80%.

Turning to `Fc1cc(F)c(-c2c(Cl)nnc(Cl)c2-c2ccc(Cl)cc2)c(F)c1` [I.k. 198, 3,6-dichloro-4-(4-chloro-phenyl)-5-(2,4,6-trifluoro-phenyl)-pyridazine], the inhibition at 200 ppm (in the data set on Botrytis cinerea; with Puccinia recondita; in data set [1]; in data set [2]; in the data set on Septoria tritici; in the data set with Uncinula necator) was at least 80% throughout.

`COc1nnc(Cl)c(-c2c(F)cc(F)cc2F)c1-c1ccc(Br)cc1` [I.l. 199, 4-(4-bromophenyl)-6-chloro-3-methoxy-5-(2,4,6-trifluorophenyl)-pyridazine]: the melting point lay within 113 to 119 °C. The inhibition at 200 ppm with Alternaria solani is at least 80%. In addition, the inhibition at 200 ppm in the data set with Botrytis cinerea was at least 80%. In addition, in the data set with Puccinia recondita, the inhibition at 200 ppm is at least 80%. Besides, in data set [1], the inhibition at 200 ppm is at least 80%. Also, the inhibition at 200 ppm in data set [2] was at least 80%. For the same molecule, the inhibition at 200 ppm with Septoria tritici was at least 80%. Also, the inhibition at 200 ppm in the data set with Uncinula necator is at least 80%.
